Experimental data published in US20250144127A1, “LONG-CHAIN COMPOUND AND USE THEREOF” (Burgeon Therapeutics Co., Ltd., priority 2021, published 2025).

Experiments:
golden hamster = assay: High-fat and high-cholesterol diet-induced hyperlipidemia model of golden hamster; type: in vivo; settings: 1 time/day, 7 days, vs control group
Source text: Dosing regimen: The hyperlipidemia model of golden hamster is recognized as one of the ideal animal models for studying hyperlipidemia drug therapy (pharmacodynamic evaluation). In order to preliminarily investigate the existence of potential regulatory effects of the candidate compounds on hepatic lipid metabolism homeostasis, the high-fat and high-cholesterol diet-induced hyperlipidemia model of golden hamster was utilized for preliminary pharmacodynamic evaluation. The specific protocol was as follows. 56 golden hamsters, males, were modeled on high-fat and high-cholesterol diet (Research diet, item number C11953) for two weeks, and 8 golden hamsters were reserved as blank control group. Subsequently, group administration (7 groups, n=8) was performed, i.e., model control group, positive control ETC-1002 30 mg/kg group, compound A3 10 mg/kg and 30 mg/kg group, compound A4 10 mg/kg and 30 mg/kg group, and blank control group. The compounds in each group were configured with saline (0.9% NaCl) and administered at a frequency of 1 time/day for a 7-day dosing cycle.
Indicator test: The body weight and food intake of golden hamsters were closely monitored during the administration period. After 7 days of administration, blood was collected from the orbital region of each group (starved overnight for about 16 hours), centrifuged to obtain serum, and stored in cryopreservation, and then total cholesterol and LDL cholesterol were detected in the serum. The relative amount of the relevant indexes was calculated as follows: Relative amount (100%)=the amount in the administered group/the amount in the model control group*100%.

crab-eating monkeys = assay: High-fat, high-sugar, high-cholesterol diet-induced NASH in crab-eating monkeys; type: in vivo, crab-eating monkey; settings: 20 mg/kg, 1 time/day, 14 weeks, liver puncture
Protocol: Dosing regimen: 18 non-alcoholic steatohepatitis-eating crab monkeys, males, were divided into 2 groups (n=8-10), one group was set up as a model control group, and one group was set up as a drug administration group. The drug (20 mg/kg) was administered at a frequency of 1 time/day for 14 weeks while feeding a high-fat, high-sugar, high-cholesterol diet for 14 weeks.
Indicator tests: The body weights and food intake of the crab-eating monkeys were closely monitored during the administration period. After 14 weeks of compound administration, liver puncture was performed for pathologic analysis of NASH indicators.

CC(C)(CCCC/C=C/CCCCCC(C)(C)C(=O)O)C(=O)O [Compound A3]
significantly reduce: serum LDL cholesterol (golden hamster; 10 mg/kg) | serum total cholesterol (golden hamster; 10 mg/kg) | serum LDL cholesterol (golden hamster; 30 mg/kg) | serum total cholesterol (golden hamster; 30 mg/kg) | accumulation of hepatic lipids (crab-eating monkeys) | occurrence of fibrosis (crab-eating monkeys) | occurrence of inflammation (crab-eating monkeys)
significantly reduced: activity score of non-alcoholic steatohepatopathy (NAS) (crab-eating monkeys)
